Measurements: patent EP0546474A1, “Pseurotin F1/F2, new metabolites from Aspergillus fumigatus, process for their preparation and their use as apomorphine antagonists” (HOECHST AKTIENGESELLSCHAFT, priority 1991, dated 1993)

Columns and labels:
Mäusen = test: Apomorphine antagonism: inhibition of apomorphine-induced climbing in mice; assay type: in vivo; details: compound given 30 min (i.p.) or 60 min (p.o.) before apomorphine
Procedure: Die Wirkung der Verbindungen der Formeln la und Ib als Apomorphin Antagonisten wird an Mäusen getestet. Hierzu wird zunächst Apomorphin als 1 %ige Lösung (Verdünnungsmittel:Tylose, z.B. Methocel, Hoechst AG, Frankfurt, Deutschland) einmalig […] injiziert. Die Dosis ist so gewählt, daß sie bei 95 % der Mäuse für ca. 30 Minuten eine anhaltende Klettertätigkeit auslöst (1,5 mg Apomorphin/kg Maus; subcutane Injektion). Tiere, die noch vor der Apomorphingabe eine konstante Klettertätigkeit aufweisen, werden nicht im Test berücksichtigt. Pseurotin F1 oder F2 wird 30 bzw. 60 Min. vor Apomorphin appliziert (i.p. bzw. p.o.). Es wird viermal abgelesen: unmittelbar vor sowie 10, 20 und 30 Min nach Apomorphin-Injektion. Dabei wird das Kletterverhalten pro Maus beurteilt:
Testkriterium ist, ob eine Hemmung des durch Apomorphin verursachten Kletterns eintritt.

[1] = Stability in the solid state and in solution; assay type: physicochemical; details: solid state and solutions in the pH range between 3 and 8, in particular 5 and 7
Source text: Die Verbindungen der Formeln la und Ib sind im festen Zustand und in Lösungen im pH-Bereich zwischen 3 und 8, insbesondere 5 und 7, stabil und lassen sich damit in übliche galenische Zubereitungen einarbeiten.

[2] = Solubility in organic solvents; assay type: physicochemical; details: in CH2C12, CHCl3, Essigsäureethylester, Aceton, Ethanol and Isopropanol; isolated as amorphous solid
Source text: Die Pseurotine F1 /F2 werden als amorpher Feststoff isoliert und sind z.B. löslich in CH2C12, CHCl3, Essigsäureethylester, Aceton, Ethanol und Isopropanol. • FAB-MS: m/e = 418 (37 %, [M + H]^+), 400 (12 %) 382 (14 %) • Pseurotin F1: Rf = 0,29; Ethylacetat-H/Heptan (2 : 1) • Pseurotin F2: Rf = 0,20; Ethylacetat-H/Heptan (2:1) (dünnschichtchromatographisch aufgetrennt) Molmasse: 417, 12 (C21 H23NO8)

[3] = 10 min after apomorphine injection (1,5 mg/kg, s.c.), observed in the majority of treated mice
[4] = 20 min after apomorphine injection (1,5 mg/kg, s.c.), observed in nearly all animals

Structure (SMILES)	Kletterverhalten pro Maus (Hemmung des durch Apomorphin verursachten Kletterns) (Mäusen; [3])	Kletterverhalten pro Maus (Hemmung des durch Apomorphin verursachten Kletterns) (Mäusen; [4])	Stabilität [1]	Löslichkeit [2]
CC/C=C\[C@H](O)[C@H](O)C1=C(C)C(=O)[C@]2(O1)C(=O)N[C@](O)(C(=O)c1ccccc1)[C@@H]2O [Pseurotin F1]	nur noch 1 oder 2 Pfoten an der Wand	deutliche Symptome in Form der Kletterhemmung (4 Pfoten am Boden)	stabil	löslich
CC/C=C\[C@H](O)[C@H](O)C1=C(C)C(=O)[C@]2(O1)C(=O)N[C@@](O)(C(=O)c1ccccc1)[C@@H]2O [Pseurotin F2]	nur noch 1 oder 2 Pfoten an der Wand	deutliche Symptome in Form der Kletterhemmung (4 Pfoten am Boden)	stabil	löslich
